In one series the test system is BV-2. The series can be described thus: Antineuroinflammatory activity in mouse BV2 cells assessed as inhibition of LPS-induced IL-1beta production after 16 hrs by ELISA. The note with it: BV-2, 16 h. It counts as functional, cell-based.
Series [1] relates to Mus musculus. In words: Antialzheimer activity in Kunming mouse assessed as reversal of amyloid beta (1 to 42)-induced impairments in spartial recognition memory at 0.65 mg/kg, po qd measured on day 3 and 4 by morris water maze test. The format is functional, organism-based. On the set-up: dose 0.65 mg/kg.
The test system of series [2] is Mus musculus. The series can be described thus: Antialzheimer activity in Kunming mouse assessed as reversal of amyloid beta (1 to 42)-induced decrease of swimming time spent in target quadrant at 0.65 mg/kg, po qd measured on day 13 by morris water maze test. The format is functional, organism-based. On the set-up: dose 0.65 mg/kg.
In series [3] the test system is Mus musculus. The series can be described thus: Antialzheimer activity in Kunming mouse assessed as reversal of amyloid beta (1 to 42)-induced decrease of swimming percentage of path length at 0.656 mg/kg, po qd measured on day 13 by morris water maze test. It counts as functional, organism-based. The arrangement: dose 0.656 mg/kg.
Series [4] in a line: Oral bioavailability in rat at 2.5 mg/kg. It counts as ADME, organism-based. Conditions: in vivo.
The nature of series [5]: Tmax in rat brain at 2.5 mg/kg, po. It counts as ADME, organism-based. The arrangement: dose 2.5 mg/kg, route oral.
In series [6] the test system is Mus musculus. In words: Antialzheimer activity in Kunming mouse assessed as reversal of amyloid beta (1 to 42)-induced impairments in spartial recognition memory at 2.5 mg/kg, po qd measured on day 3 and 4 by morris water maze test. The format is functional, organism-based. On the set-up: dose 2.5 mg/kg.
Series [7] deals with Mus musculus. The series can be described thus: Antialzheimer activity in Kunming mouse assessed as reversal of amyloid beta (1 to 42)-induced decrease of swimming time spent in target quadrant at 2.5 mg/kg, po qd measured on day 13 by morris water maze test. The format is functional, organism-based. On the set-up: dose 2.5 mg/kg.
The subject of series [8] is Mus musculus. In words: Antialzheimer activity in Kunming mouse assessed as reversal of amyloid beta (1 to 42)-induced decrease of swimming percentage of path length at 2.5 mg/kg, po qd measured on day 13 by morris water maze test. On the set-up: dose 2.5 mg/kg. It counts as functional, organism-based.

Active and inactive are the calls of the source. No cut-off for these calls is given here.

In the case of `Cc1cc(-c2ccc(F)cc2)nnc1N1CCN(c2ncccn2)CC1`, in the series with BV-2, the IC50 was 76.3 µM.
Turning to `COc1cccc(-c2cc(C)c(N3CCN(c4ncccn4)CC3)nn2)c1`, in the series with BV-2, the concentration for half-maximal inhibition (IC50) was found to be 2.6 µM.
The same measure, in the same setting: as for `Cc1cc(Cl)nnc1N1CCN(c2ncccn2)CC1`, the figure is above 100 µM; as for `Cc1cc(C(C)C)nnc1N1CCN(c2ncccn2)CC1`, above 100 µM.
In the case of `Cc1cc(-c2cccnc2)nnc1N1CCN(c2ncccn2)CC1`, the IC50 in the series on BV-2 is above 100 µM.
Still for that read-out and setting: for `Cc1ccnnc1N1CCN(c2ncccn2)CC1` the value was above 100 µM.
Consider `Cc1cc(-c2ccnc3ccccc23)nnc1N1CCN(c2ncccn2)CC1`, for which the half-inhibitory concentration (IC50) with BV-2 was determined as 66.5 µM.
Same read-out and setting: as for `Cc1cc(-c2cccc(F)c2)nnc1N1CCN(c2ncccn2)CC1`, the figure is 33.5 µM.
On the same count and under the same terms, for `Cc1cc(-c2ccncc2)nnc1N1CCN(c2ncccn2)CC1` the value was above 100 µM; for `Cc1cc(-c2ccc3[nH]ccc3c2)nnc1N1CCN(c2ncccn2)CC1`, 85.1 µM; for `Cc1cc(-c2ccc(C(F)(F)F)cc2)nnc1N1CCN(c2ncccn2)CC1`, 37.4 µM.
Same read-out and setting: for `COc1ccc(-c2cc(C)c(N3CCN(c4ncccn4)CC3)nn2)cc1` the value was 5.2 µM; for `Cc1cc(-c2ccccc2)nnc1N1CCN(c2ncccn2)CC1`, 11.4 µM.
Regarding `COc1ncc(-c2cc(C)c(N3CCN(c4ncccn4)CC3)nn2)c(OC)n1`, in the series on BV-2, the half-maximal inhibitory concentration (IC50) is above 100 µM.
As for `COc1cc2c(cc1OC)C(=O)C(CC1CCN(Cc3ccccc3)CC1)C2` (configuration not stated), the result with Mus musculus [1], in the series on Mus musculus [2] and in the series with Mus musculus [3] was Active.
The compound `Cc1cc(-c2ccsc2)nnc1N1CCN(c2ncccn2)CC1` came in with a bioavailability in [4] of 17.4%. Further, the time of peak concentration (Tmax) in [5] was found to be 19.8 min. For the same compound, the outcome in the series on Mus musculus [6], with Mus musculus [7] and in the series on Mus musculus [8] was Active. The IC50 in the series with BV-2 worked out at 2.4 µM.
Take `Cc1ccc(-c2cc(C)c(N3CCN(c4ncccn4)CC3)nn2)cc1`: the IC50 in the series on BV-2 is 17.2 µM.
The same measure, in the same setting: as for `Cc1cc(C)c(N2CCN(c3ncccn3)CC2)nn1`, the figure is above 100 µM.
Same read-out and setting: as for `Cc1cc(-c2cncnc2)nnc1N1CCN(c2ncccn2)CC1`, the figure is above 100 µM; as for `Cc1cc(-c2cc3ccccc3s2)nnc1N1CCN(c2ncccn2)CC1`, 24.9 µM.

The term IC50 denotes the point on the concentration scale where inhibition reaches its midpoint. By bioavailability is commonly meant dose-corrected exposure relative to a reference, in per cent. Lower therefore signals little systemic uptake. A word on the Tmax: it is the time from dosing to the highest level.

For the origin of these results see ChEMBL document CHEMBL2157953, “Identification of aminopyridazine-derived antineuroinflammatory agents effective in an Alzheimer's mouse model” (ACS Med Chem Lett, 2012).
